Laboratory results published in PubChem BioAssay (NCI).
Several values for one entry are separate records, joined by “and”; a condition that tells them apart may be missing. Identical values can stand only once.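 Briefly, cells in 96-well plates were exposed to five compound concentrations for 48 h, and endpoints were estimated by linear interpolation. Here, GI50 denotes the concentration required for 50% inhibition of growth. TGI: concentration producing complete growth inhibition.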

Legend:
Assay in all cases: NCI tumour cell line growth inhibition, 48 h
ACHN renal = test system: ACHN renal
HL-60(TB) leukemia = test system: HL-60(TB) leukemia
HS 578T breast = test system: HS 578T breast
K-562 leukemia = test system: K-562 leukemia
NCI-H23 lung = test system: NCI-H23 lung
OVCAR-4 ovarian = test system: OVCAR-4 ovarian
PC-3 prostate = test system: PC-3 prostate
SF-295 CNS = test system: SF-295 CNS
SW-620 colon = test system: SW-620 colon
UACC-257 melanoma = test system: UACC-257 melanoma

Compound	TGI (ACHN renal) [µM]	TGI (HL-60(TB) leukemia)	TGI (HS 578T breast) [µM]	TGI (K-562 leukemia) [µM]	TGI (NCI-H23 lung) [µM]	TGI (OVCAR-4 ovarian) [µM]	TGI (PC-3 prostate) [µM]	TGI (SF-295 CNS) [µM]	TGI (SW-620 colon) [µM]	TGI (UACC-257 melanoma) [µM]	GI50 (HL-60(TB) leukemia)	GI50 (HS 578T breast)
CCOC(=O)N1CCC2(CC1)C[C@](Sc1ccccc1)(C(C)=O)[C@H](C)O2	> 100	> 100 µM	> 100	> 100	> 100	> 100	> 100	> 100	> 100	> 100		
O=C1O/C(=C(\Br)c2ccc([N+](=O)[O-])cc2)c2ccccc21	> 100	> 67.1 µM	> 100	> 100	> 100	> 100	> 100	> 100	> 100	> 100		
COC(=O)c1sc2nc(Nc3ccccc3)c(=Nc3ccccc3)sc2c1C	> 100	> 100 µM	> 100	> 100	> 100	> 100	> 100	> 100	> 100	> 100		
CC1=NN(c2ccccc2)C(=O)/C1=C1\SC(c2ccccc2)(c2ccccc2)c2ccccc21	> 100	> 100 µM	> 100	> 100	> 100	> 100	> 100	> 100	> 100	> 100		
O=C1C(NS(=O)(=O)c2ccccc2)=C(n2ccnc2)C(=O)c2ccccc21	> 100	> 100 µM	> 100	> 100	> 100	> 100	> 100	> 100	> 100	> 100		
CC(=O)N1N=C(c2ccccc2)NC(=O)C1c1cc(C)c(O)c(C)c1 (configuration not stated)	44	> 100 µM	> 100	> 100	64.1	43.3	79.7	43.8	> 100	96.7		
O=c1[nH]nc(-c2ccc3ccccc3c2)[nH]1	> 100	> 100 µM	24.2	> 100	> 100	> 100	> 100	> 100	> 100	> 100		
COc1cc2ncnc(Nc3cccc(Br)c3)c2cc1OC	> 100	> 75.2 µM	53.2	> 55.5	28.7	> 49.8	> 37.2	14.3	> 50.2	> 40.9		
OC1C2CN3CCN(C2)CC1(c1ccccc1)C3 (configuration not stated)	> 100	> 100 µM	> 100	> 100	> 100	> 100	> 100	> 100	> 100	> 100		
Fc1ccc(F)c(C=NC23CC4CC(CC(C4)C2)C3)c1	> 10	6.94 µM	> 10	> 10	> 10	> 10	> 10	> 10	> 10	> 10		
CC1OC1C(=O)P(=O)(O)O (configuration not stated)	> 100	> 100 µM	> 100	> 100	> 100	> 100	> 100	> 100	> 100	> 100		
Cc1cc2c(cc1Cl)SSc1cc(Cl)c(C)cc1S(=O)(=O)Nc1nc(N)nn1C(O)n1nc(N)nc1NS2(=O)=O	> 10	> 10 µM	> 10	> 10	> 10	> 10	> 10	> 10	> 10	> 10		
c1ccc(CCCN2C3CCC2CN(CCOC(c2ccccc2)c2ccccc2)C3)cc1	26.2	23.1 µM	33.7	64	23.6	28.4	19.4	26.9	44.8	20.8		
CCN1CC2=C(OC(N)=C(C#N)C2c2ccc(Cl)cc2)/C(=C/c2ccc(Cl)cc2)C1 (configuration not stated)	45.9	> 100 µM	> 100	> 100	68.7	> 100	98.9	> 100	> 100	> 100		
OC1CCN2Cc3ccccc3N=C12 (configuration not stated)	> 100	> 100 µM	> 100	> 100	> 100	> 100	> 100	> 100	> 100	> 100		
CCOC(=O)c1nc(SC)sc1NC(=O)c1ccc(OC)cc1	> 100	> 100 µM	> 100	> 100	> 100	89.9	> 100	> 100	> 100	> 100		
CCOC(=O)Cn1nnc2ccc(Nc3nc4ccccc4nc3C(=O)OCC)cc21	> 100	> 100 µM	> 100	> 100	> 100	> 100	> 100	> 100	> 100	> 100		
CN(C)CC1CCC/C(=C\c2ccc(Cl)c(Cl)c2)C1=O (configuration not stated)	15.1	4.06 µM	9.51	5.47	23.8	14.3	> 33.5	25.8	> 29.3	21.7		
Cc1ccc2[nH]c3c(c2c1)C1CCC(C(C)(C)C)CC1C1C(=O)N(c2ccc(Oc4ccccc4)cc2)C(=O)C31 (configuration not stated)	> 100	8.09 µM	8.28	31.3	58.9	42.6	> 100	> 100	> 100	> 100		
COc1cc(/C=C2\CC3C4CC=C5C[C@@H](O)CC[C@]5(C)C4CC[C@]3(C)\C2=N\O)cc(OC)c1OC (some centres not stated)	17.6	> 100 µM	> 100	> 100	55.5	68.8	37.8	22	> 100	61.1		
O=S(=O)(O)c1cc(O)c(N=NC2S(=O)(=O)OCCOS2(=O)=O)c2ccccc12	> 100	> 100 µM	> 100	> 100	> 100	> 100	> 100	> 100	> 100	> 100		
CCCCOc1ccc(/C=C/C2=[N+](CCO)CCO2)cc1	> 100	40.2 µM	> 100	66.5	> 100	> 100	> 100	> 100	86.5	> 100		
COP(=O)(OC)[C@@](O)(c1ccccc1)[C@@H](O)[C@H](O)c1ccccc1	> 100	> 100 µM	> 100	> 100	> 100	> 100	> 100	> 100	> 100	> 100		
CC(C)(C)OC(=O)C1C(=O)NC(=O)CC1C(OCc1ccccc1)C(OCc1ccccc1)C(COCc1ccccc1)OCc1ccccc1 (configuration not stated)	> 100	> 100 µM and 49.5 µM	> 100	> 100	> 100	> 100	> 100	> 100	> 100	> 100	61.7 µM and 12.8 µM	> 100 µM and 16.2 µM
CCOP(=O)(OCC)/C(C#N)=C/c1nc[nH]c1C	> 100	> 100 µM	> 100	> 100	> 100	> 100	> 100	> 100	> 100	> 100		
CN(C)CCNc1c(O)c2c(c(O)c1Cl)C(=O)C=CC2=O	9.76	4.33 µM	7.56	6.66	4.25	3.29	17.8	4.05	3.91	3.09		
Cc1cc(C)c2c(-c3ccccc3)cc(=O)[nH]c2c1	> 100	> 100 µM	> 100	> 100	> 100	> 100	> 100	> 100	> 100	> 100		
CCCCCCCCCCCCCOCCOCCOCCCCC(O)CCCCCCCCCC1=C[C@H](C)OC1=O (some centres not stated)	> 100	16 µM	47.6	> 100	60	71.9	71.7	29.2	76.9	37.7		
CCCCOC(=O)Nc1ccc(S(=O)(=O)Nc2c(Cl)cccc2Cl)cc1	> 100	> 100 µM	> 100	47.8	> 100	42.5	> 100	> 100	90.1	> 100		
